{"source": "paper PMC7828495", "about": "“Synthesis, Stability, and Antidiabetic Activity Evaluation of (−)-Epigallocatechin Gallate (EGCG) Palmitate Derived from Natural Tea Polyphenols” (Molecules, 2021)", "key": {"[1]": {"test_system": "Mouse", "details": "cited from earlier work"}, "[2]": {"test_system": "human", "details": "ref Material Safety Data Sheet (MSDS); cited from earlier work"}, "[3]": {"target": "T1, α-glucosidase (Saccharomyces cerevisiae, UniProt P53341)", "T1 construct": "purchased Sinopharm Group Chemical Reagent Co. (Shanghai, China)", "T1 sequence (P53341 whole entry)": "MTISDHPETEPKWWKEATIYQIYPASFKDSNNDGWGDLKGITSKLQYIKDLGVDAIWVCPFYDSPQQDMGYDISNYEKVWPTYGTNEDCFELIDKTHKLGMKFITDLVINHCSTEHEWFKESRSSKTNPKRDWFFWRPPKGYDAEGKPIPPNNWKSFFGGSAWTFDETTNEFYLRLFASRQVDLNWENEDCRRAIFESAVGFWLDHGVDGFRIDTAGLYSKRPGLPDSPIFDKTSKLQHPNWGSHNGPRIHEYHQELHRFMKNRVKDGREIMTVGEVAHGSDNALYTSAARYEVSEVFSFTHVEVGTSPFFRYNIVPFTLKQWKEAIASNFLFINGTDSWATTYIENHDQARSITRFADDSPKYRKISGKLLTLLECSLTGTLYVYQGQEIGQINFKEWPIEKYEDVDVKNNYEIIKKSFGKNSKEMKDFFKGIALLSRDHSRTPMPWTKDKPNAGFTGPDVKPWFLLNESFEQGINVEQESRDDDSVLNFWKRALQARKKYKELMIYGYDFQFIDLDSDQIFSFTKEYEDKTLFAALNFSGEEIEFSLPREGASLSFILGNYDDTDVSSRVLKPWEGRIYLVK", "assay": "α-Glucosidase inhibition assay (PNPG substrate)", "assay_type": "biochemical", "description": "(§1) All of the other solvents and chemicals used were obtained from Sinopharm Group Chemical Reagent Co., Ltd. (Shanghai, China) and were of analytical grade. Sodium phosphate buffer (PBS) was purchased from Solarbio Co. (Beijing, China) and was prepared to make a concentration of 0.01 M aqueous solution (pH 7.2).\nThe activity of α-glucosidase was determined in a 96-well plate based on 4-Nitrophenyl […]-D-glucopyranoside (PNPG) as a substrate."}, "[4]": {"assay": "pH stability in alkalescent condition (HPLC)", "assay_type": "physicochemical", "details": "ethanol/PBS 80:20, pH 7.2, 37 °C, open air, 1.3 mM", "description": "(§2) Since the intestine system is alkalescent, it is necessary to assess the stability of EGCG and PEGCG under this condition.\nEquivalent molar concentrations (1.3 mM) of EGCG and PEGCG were incubated in Pyrex test tubes (20 × 1.6 cm, i.d.) in the open air at 37 °C, respectively, without any agitation. Aliquots (20 µL) of the incubation solution was periodically (1, 2, 5 h) sampled and subjected to HPLC analysis, respectively. HPLC condition was the same as Item 2.5."}, "[5]": {"assay": "Storage stability of powder in open air", "assay_type": "physicochemical", "details": "room temperature, 60 d", "description": "To study the storage stability of EGCG and PEGCG powder, […] of the two powders were kept in the open air at room temperature, respectively. After 60 days, aliquots of the two powders were sampled and subjected to HPLC analysis, respectively. The HPLC condition was the same as Item 2.5."}, "[6]": {"assay": "Thermal stability (TG analysis)", "assay_type": "physicochemical", "details": "30 to 400 °C, 10 °C/min, nitrogen", "description": "The thermal stability behaviors of EGCG and PEGCG were investigated on a TG apparatus (SDT […], TA Instruments, New Castle, DE, USA). About 3.0 mg of each sample was used to perform the analysis by putting the powder on a TG pan. The sample was scanned from 30 to 400 °C with a heating rate of 10 °C/min under a nitrogen atmosphere."}, "[7]": {"design": "method as in PMID 16302765, PMID 12499265", "details": "sodium phosphate buffer pH 7.4, 3 h; cited from earlier work"}, "[8]": {"design": "method as in PMID 9177723", "details": "rats, 56 mg of EGCG orally; cited from earlier work"}, "[9]": {"design": "method as in PMID 9177723", "details": "humans, single oral intake of 97 mg; cited from earlier work"}, "[10]": {"test_system": "porcine pancreatic α-amylase", "sequence (P06278 30-512)": "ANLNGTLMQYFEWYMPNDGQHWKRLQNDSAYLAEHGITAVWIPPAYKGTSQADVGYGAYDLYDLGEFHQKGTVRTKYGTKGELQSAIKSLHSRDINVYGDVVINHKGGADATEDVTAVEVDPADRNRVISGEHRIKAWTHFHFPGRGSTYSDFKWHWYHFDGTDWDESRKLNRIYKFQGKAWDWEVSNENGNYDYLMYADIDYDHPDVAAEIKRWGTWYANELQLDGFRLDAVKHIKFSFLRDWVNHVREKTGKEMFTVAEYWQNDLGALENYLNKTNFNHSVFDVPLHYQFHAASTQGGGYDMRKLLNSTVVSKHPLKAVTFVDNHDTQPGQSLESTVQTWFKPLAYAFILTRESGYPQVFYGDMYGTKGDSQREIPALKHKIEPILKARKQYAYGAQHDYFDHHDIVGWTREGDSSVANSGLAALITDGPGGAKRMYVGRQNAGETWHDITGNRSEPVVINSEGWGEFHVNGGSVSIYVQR", "assay": "α-Amylase inhibition assay", "assay_type": "biochemical", "details": "ratio of IC50 values versus EGCG", "description": "as §1"}, "[11]": {"assay": "Solubility in PBS", "assay_type": "physicochemical", "description": "as §2"}, "[12]": {"details": "Mouse, acute toxicity, ref Material Safety Data Sheet (MSDS)"}}, "note": "Where two headings read alike, the source gives them in different places.", "data": [{"compound": "CN(C)c1ccncc1", "note": "[4-dimethylaminopyridine (DMAP), 4-dimethylaminopyridine]", "values": [{"measurement": "Acute toxicity grade", "setting": "[1]; [12]", "result": "LD50 250 mg/kg, medium toxicity"}, {"measurement": "Harm to Human Health", "setting": "[2]", "result": "Irritating to the eyes; eating poisonous"}]}, {"compound": "O=C(O[C@@H]1Cc2c(O)cc(O)cc2O[C@@H]1c1cc(O)c(O)c(O)c1)c1cc(O)c(O)c(O)c1", "note": "[EGCG, (−)-Epigallocatechin gallate]", "values": [{"measurement": "IC50", "setting": "[3]", "result": "11.5 ± 0.02", "unit": "µM"}, {"measurement": "degraded / hydrolyzed after 1 h", "setting": "[4]", "result": 93, "unit": "%"}, {"measurement": "degraded / hydrolyzed after 5 h", "setting": "[4]", "result": "utterly degraded"}, {"measurement": "remained after storage", "setting": "[5]", "result": 45, "unit": "%"}, {"measurement": "thermal decomposition temperature", "setting": "[6]", "result": 234.5, "unit": "°C"}, {"measurement": "EGCG lost", "setting": "[7]", "result": 90, "unit": "%"}, {"measurement": "absorbed after oral dose", "setting": "[8]", "result": 0.01, "unit": "%"}, {"measurement": "absorbed after oral dose", "setting": "[9]", "result": 0.32, "unit": "%"}]}, {"compound": "CCCCCCCCCCCCCCCC(=O)Oc1c(O)cc([C@H]2Oc3cc(O)cc(O)c3C[C@H]2OC(=O)c2cc(O)c(O)c(O)c2)cc1O", "note": "[PEGCG, 4′-O-palmitoyl EGCG]", "values": [{"measurement": "α-amylase inhibitory activity relative to EGCG", "setting": "[10]", "result": 4.5, "unit": "times"}, {"measurement": "IC50", "setting": "[3]; 37 °C, PNPG substrate, read-out: IC50 for α-Glucosidase", "result": "0.22 ± 0.03", "unit": "µM"}, {"measurement": "α-glucosidase inhibitory activity relative to EGCG", "setting": "[3]; ratio of IC50 values versus EGCG", "result": 52, "unit": "times"}, {"measurement": "α-glucosidase inhibitory activity relative to acarbose", "setting": "[3]; ratio of IC50 values versus acarbose", "result": 0.68, "unit": "times"}, {"measurement": "degraded / hydrolyzed after 1 h", "setting": "[4]", "result": "most of the PEGCG was hydrolyzed to EGCG and its dimers"}, {"measurement": "degraded / hydrolyzed after 5 h", "setting": "[4]", "result": 100, "unit": "%"}, {"measurement": "remained after storage", "setting": "[5]", "result": 78, "unit": "%"}, {"measurement": "thermal decomposition temperature", "setting": "[6]", "result": 311.19, "unit": "°C"}, {"measurement": "solubility in PBS", "setting": "[11]", "result": "insoluble in PBS"}]}, {"compound": "c1ccncc1", "note": "[Pyridine]", "values": [{"measurement": "Acute toxicity grade", "setting": "[1]; mouse, in vivo", "result": "LD50 1580 mg/kg, mild toxicity"}, {"measurement": "LD50", "setting": "[1]; mouse, in vivo", "result": "LD50 1580 mg/kg, mild toxicity"}, {"measurement": "Harm to Human Health", "setting": "[2]", "result": "Strong irritant; anesthetizes the central nervous system"}]}, {"compound": "CC(=O)[O-].[Na+]", "note": "[Sodium acetate]", "values": [{"measurement": "Acute toxicity grade", "setting": "[1]; mouse, in vivo", "result": "LD50 25,956 mg/kg, non-toxic"}, {"measurement": "LD50", "setting": "[1]; mouse, in vivo", "result": "LD50 25,956 mg/kg, non-toxic"}, {"measurement": "Harm to Human Health", "setting": "[2]", "result": "None"}]}, {"compound": "O=C([O-])[O-].[Na+].[Na+]", "note": "[Sodium carbonate]", "values": [{"measurement": "Harm to Human Health", "setting": "[2]", "result": "Irritant and corrosive"}]}, {"compound": "CCN(CC)CC", "note": "[Triethylamine]", "values": [{"measurement": "Acute toxicity grade", "setting": "[1]; [12]", "result": "medium toxicity"}, {"measurement": "LD50", "setting": "[1]; mouse, in vivo", "result": 460, "unit": "mg/kg"}, {"measurement": "Harm to Human Health", "setting": "[2]", "result": "strong irritant to the respiratory tract; after inhaling can cause pulmonary edema or even death"}]}]}
